Results on one molecule are retold here after patent publication US9808470B2, “Estrogenic components for use in the treatment of neurological disorders” (UNIVERSITE DE LIEGE, priority 2012, dated 2017).

Structures are written as SMILES.

In experiment [1] the test system is S100B. The experiment in a line: Ex.4 therapeutic HIE rat model: blood serum S100B ELISA. The class given is in vivo. Conditions: estetrol treated animals (1, 5, 10, 50 mg/kg single ip dose after HI); PND14; vs vehicle. Here is the method: Blood was withdrawn, centrifuged and the serum samples were stored at −80° C.
ELISAs for detecting the brain damage markers S100B protein (Catalog# CSB-E08066r, Cusabio Biotech Co., LTD, China), and glial fibrillary acidic protein (GFAP) (Catalog# E90068Ra, Uscn Life sciences Inc., China) in blood serum samples were performed according to the manufacturers' recommendations.
To study the therapeutic effect of estetrol, newborn rat pups were assigned to one of the following 6 groups at postnatal day 7: sham group (n=29), vehicle group (n=20), 1 mg/kg E4 group (n=16), 5 mg/kg E4 group (n=19), 10 mg/kg day E4 (n=17) and 50 mg/kg day E4 group (n=15). At postnatal day 7 animals were anesthetized with isoflurane (induction, 3.0%; maintenance, 1.5%), and the rat pups from vehicle and E4 groups passed through surgery encompassing left common carotid artery double ligation and cut. After surgery, the pups were returned to their dams and allowed to recover for 1 hour. The pups were then placed in a humidified hypoxic in vivo cabinet (CoyLab). Hypoxia was produced by the inhalation of 11%-8% of oxygen balanced by nitrogen at decreased concentration of oxygen for 20 minutes, followed by inhalation of 8% oxygen and 92% nitrogen at constant concentration for 35 minutes. All the manipulations were performed at 37° C. […]

Experiment [2] has as its system Microtubule-associated protein 2 (MAP2). The experiment in a line: Ex.8 neuroprotective HIE rat model: MAP2 staining. The experiment is classed as in vivo. The settings on record: 10 mg/kg/day E4. Here is the method: Newborn rat pups were assigned to one of the following 14 groups from postnatal day 4 (FIG. 23(A)): Sham group (n=12), Vehicle group (n=17), 5 mg/kg/day E4 (n=13), 10 mg/kg/day E4 (n=10), 5 mg/kg/day E4+1.6 mg/kg/day PROG (n=11), 10 mg/kg/day E4+1.6 mg/kg/day PROG (n=11), 5 mg/kg/day E4+16 mg/kg/day PROG (n=11), 10 mg/kg/day E4+16 mg/kg/day PROG (n=11), 5 mg/kg/day E4+136 ng//kg/day E2 (n=11), 10 mg/kg/day E4+136 ng/kg/day E2 (n=11), 5 mg/kg/day E4+1.6 mg/kg/day PROG+136 ng/kg/day (n=13) E2, 10 mg/kg/day E4+1.6 mg/kg/day PROG+136 ng/kg/day E2 (n=16), 5 mg/kg/day E4+16 mg/kg/day PROG+136 ng/kg/day E2 (n=11), 10 mg/kg/day E4+16 mg/kg/day PROG+136 ng/kg/day groups (n=13). Intraperitoneal injections of the pups from study groups were performed from postnatal day 4 to postnatal day 7 inclusively. […]
The brain sections were processed for immunohistochemical detection of neuronal cytoskeletal disruption. […] Samples were analyzed with the aid of an image scanner (Nanozoomer Virtual Microscopy, Hamamatsu, Tokyo, Japan) and the ImageJ software (NIH, US). The positive areas in the ipsilateral and contralateral hemispheres were measured. The ratio of the MAP2 positive areas was calculated as the MAP2 positive area of the ipsilateral hemisphere divided by the MAP2 positive area of the contralateral hemisphere. […]

`C[C@]12CC[C@@H]3c4ccc(O)cc4CC[C@H]3[C@@H]1[C@@H](O)[C@@H](O)[C@@H]2O` [E4, 1,3,5(10)-estratrien-3,15α,16α,17β-tetrol]: the “expression of S100B protein in blood serum” value in experiment [1] is listed as “significantly lower expression”. The “ratio of MAP2-positive area (ipsilateral/contralateral)” value in experiment [2] was 0.97±0.01.
